In the assay the target is Nanoluciferase-BRD9 fusion protein (3×FLAG-NLuc-BRD9) in SYO-1 cells (Homo sapiens (Human), UniProt Q9H8M2). The assay is described as follows: SYO1 BRD9 NanoLuc degradation assay. Type of assay: cell-based. How it is done:
Procedure: A stable SYO-1 cell line expressing 3×FLAG-NLuc-BRD9 was generated. On day 0 cells were seeded in 30 μL media into each well of 384-well cell culture plates. The seeding density was 8000 cells/well. On day 1, cells were treated with 30 nL DMSO or 30 nL of 3-fold serially DMSO-diluted compounds (10 points in duplicates with 1 μM as final top dose). Subsequently plates were incubated for 6 hours in a standard tissue culture incubator and equilibrated at room temperature for 15 minutes. Nanoluciferase activity was measured by adding 15 μL of freshly prepared Nano-Glo Luciferase Assay Reagent (Promega N1130), shaking the plates for 10 minutes and reading the bioluminescence using an EnVision reader.
Results: The Inhibition % was calculated using the following formula: % Inhibition=100×(LumHC−LumSample)/(LumHC−LumLC). DMSO treated cells are employed as High Control (HC) and 1 μM of a known BRD9 degrader standard treated cells are employed as Low Control (LC).

Setting [1] is: SYO-1 cells expressing 3×FLAG-NLuc-BRD9, 6 hours incubation, top dose 1 μM.

SMILES strings stand for the structures. pIC50: −log10 of the molar value.

Sequence of Nanoluciferase-BRD9 fusion protein (3×FLAG-NLuc-BRD9) in SYO-1 cells (Q9H8M2 whole entry, the tested form may be a part): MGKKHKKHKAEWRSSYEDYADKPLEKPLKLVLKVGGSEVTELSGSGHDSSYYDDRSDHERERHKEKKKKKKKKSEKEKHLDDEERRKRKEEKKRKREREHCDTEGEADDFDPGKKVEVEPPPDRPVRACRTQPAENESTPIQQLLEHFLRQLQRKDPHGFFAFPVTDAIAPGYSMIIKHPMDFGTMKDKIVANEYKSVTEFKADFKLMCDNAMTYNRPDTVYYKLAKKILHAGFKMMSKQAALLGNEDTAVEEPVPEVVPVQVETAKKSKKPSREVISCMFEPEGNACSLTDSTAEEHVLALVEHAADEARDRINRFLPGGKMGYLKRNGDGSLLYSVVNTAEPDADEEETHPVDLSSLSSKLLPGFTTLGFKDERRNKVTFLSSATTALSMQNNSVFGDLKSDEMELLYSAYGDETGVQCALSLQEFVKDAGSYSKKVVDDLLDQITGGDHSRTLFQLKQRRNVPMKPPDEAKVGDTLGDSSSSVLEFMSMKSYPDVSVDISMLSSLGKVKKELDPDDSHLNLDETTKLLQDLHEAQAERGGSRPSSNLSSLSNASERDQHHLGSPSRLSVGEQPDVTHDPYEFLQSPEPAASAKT

For orientation: pIC50 means the negative decadic logarithm of the IC50, by convention in mol/L. `CNC(=O)N1CCc2c(-c3cc(OC)c(CN4CC5(CC(N6Cc7cc8c(cc7C6)C(=O)N(C6CCC(=O)NC6=O)C8=O)C5)C4)c(OC)c3)cn(C)c(=O)c2C1` (stereo not shown) [Compound D177] showed a pIC50 under setting [1] of 7.00 to 8.00.

For the compound `COc1cc(-c2cn(C)c(=O)c3c2CCN(C(=O)NC2CC4CN(CCCCN5CCN(c6ccc7c(c6)C(=O)N(C6CCC(=O)NC6=O)C7=O)CC5)CC4C2)C3)cc(OC)c1CN(C)C` (stereo not shown) [Compound D245], the pIC50 under setting [1] is 6.00 to 7.00.

For the compound `CNC(=O)N1CCc2c(-c3cc(OC)c(CN4CCC(C(=O)N5CCC6(CC5)CC(Oc5ccc7c(c5)C(=O)N(C5CCC(=O)NC5=O)C7=O)C6)CC4)c(OC)c3)cn(C)c(=O)c2C1` (stereo not shown) [Compound D254], the pIC50 under setting [1] was > 8.00.

On to `COc1cc(-c2cn(C)c(=O)c3c2CCN(C(=O)NCCCN2CCC4(CC2)CN(c2ccc5c(c2)C(=O)N(C2CCC(=O)NC2=O)C5=O)C4)C3)cc(OC)c1CN(C)C` (stereo not shown) [Compound D246], for which the pIC50 under setting [1] was > 8.00.

For the compound `COc1cc(-c2cn(C)c(=O)c3c2CCN(C(=O)NC2CC4(CCN(CCCN5CCN(c6ccc7c(c6)C(=O)N(C6CCC(=O)NC6=O)C7=O)CC5)CC4)C2)C3)cc(OC)c1CN(C)C` (stereo not shown) [Compound D216], under setting [1], the pIC50 was ≤ 6.00.

Regarding `COc1cc(-c2cn(C)c(=O)c3c2CCC3)cc(OC)c1CN1CC(Oc2ccc3c(c2)C(=O)N(C2CCC(=O)NC2=O)C3=O)C1` (stereo not shown) [Compound D362], the pIC50 (SYO-1 cells, 6 hours, Table 6C) is > 8.00.

With `CNC(=O)N1CCc2c(-c3cc(OC)c(CN4CC(CCCN5CCN(c6ccc7c(c6)C(=O)N(C6CCC(=O)NC6=O)C7=O)CC5)C4)c(OC)c3)cn(C)c(=O)c2C1` (stereo not shown) [Compound D257], the pIC50 under setting [1] is ≤ 6.00.

On to `CNC(=O)N1CCc2c(-c3cc(OC)c(CN(C)C45CC(C(=O)NCCCCCOc6ccc7c(c6)C(=O)N(C6CCC(=O)NC6=O)C7=O)(C4)C5)c(OC)c3)cn(C)c(=O)c2C1` (stereo not shown) [Compound D276], for which the pIC50 under setting [1] is 7.00 to 8.00.

For the compound `COc1cc(-c2cn(C)c(=O)c3c2CCN(C(=O)NCC(F)F)C3)cc(OC)c1CN1CCN(CCC2CCN(c3ccc4c(c3)C(=O)N(C3CCC(=O)NC3=O)C4)CC2)CC1` (stereo not shown) [Compound D344], under “SYO-1 cells, 6 hours, Table 6C”, the pIC50 was > 8.00.

As to `COc1cc(-c2cn(C)c(=O)c3c2CCN(C(=O)NC2C[C@@H]4CN(CCOc5ccc6c(c5)C(=O)N(C5CCC(=O)NC5=O)C6=O)C[C@H]24)C3)cc(OC)c1CN(C)C` (stereo partly shown) [Compound D249], under setting [1], the pIC50 is ≤ 6.00.

Consider `COc1cc(-c2cn(C)c(=O)c3c2CCN(C(=O)NCCCCCCCCNC(=O)COc2cccc4c2C(=O)N(C2CCC(=O)NC2=O)C4=O)C3)cc(OC)c1CN(C)C` (stereo not shown) [Compound D10, 5-(4-((dimethylamino)methyl)-3,5-dimethoxyphenyl)-N-(8-(2-((2-(2,6-dioxopiperidin-3-yl)-1,3-dioxoisoindolin-4-yl)oxy)acetamido)octyl)-7-methyl-8-oxo-3,4,7,8-tetrahydro-2,7-naphthyridine-2 (1H)-carboxamide formic acid], for which the pIC50 (SYO-1 cells, 6 hours, Table 6A) was < 7.00.

For the compound `CNC(=O)N1CCc2c(c(-c3cc(OC)c(CN(C)CCOCCN4CCN(c5ccc6c(c5)C(=O)N(C5CCC(=O)NC5=O)C6=O)CC4)c(OC)c3)cn(C)c2=O)C1` (stereo not shown) [Compound D296], the negative-log IC50 (pIC50) under setting [1] is ≤ 6.00.

As to `CNC(=O)N1CCc2c(-c3cc(OC)c(CN4CCN(CCC5CCN(c6ccc7c(c6)C(=O)N(C6CCC(=O)NC6=O)C7=O)CC5)CC4)c(OC)c3)c(C)n(C)c(=O)c2C1` (stereo not shown) [Compound D337], for the setting “SYO-1 cells, 6 hours, Table 6C”, the pIC50 was ≤ 6.00.

In the case of `CNC(=O)N1CCc2c(-c3cc(OC)c(CN4CCN(CCC5CCN(c6ccc7c(c6)C(=O)N(c6ccc(F)cc6F)C7=O)CC5)CC4)c(OC)c3)cn(C)c(=O)c2C1` [Compound D70], under setting [1], the pIC50 is ≤ 6.00.

As for `[2H]C([2H])([2H])n1cc(-c2cc(OC)c(CN3[C@H](C)CN(CCC4CCN(c5ccc6c(c5)CN(C5CCC(=O)NC5=O)C6=O)CC4)C[C@H]3C)c(OC)c2)c2c(c1=O)CN(C(=O)NC)CC2` (stereo partly shown) [Compound D318], for the setting “SYO-1 cells, 6 hours, Table 6C”, the pIC50 is > 8.00.

Regarding `COc1cc(-c2cn(C)c(=O)c3c2COC3)cc(OC)c1CN1CC(C#Cc2ccc3c(c2)C(=O)N(C2CCC(=O)NC2=O)C3)C1` (stereo not shown) [Compound D367], the pIC50 (SYO-1 cells, 6 hours, Table 6C) was > 8.00.

Consider `COc1cc(-c2cn(C)c(=O)c3c2CCN(C(=O)NCC(F)F)C3)cc(OC)c1CN1CCN(CCC2CCN(c3ccc4c(c3)C(=O)N(C3CCC(=O)NC3=O)C4)CC2)CC1(C)C` (stereo not shown) [Compound D313], for which the negative logarithm of the IC50 (pIC50) (SYO-1 cells, 6 hours, Table 6C) was ≤ 6.00.

As to `CNC(=O)N1CCc2c(-c3cc(OC)c(CN4CCN(CCC5CCN(c6ccc7c(c6)C(=O)N(C6CCC(=O)NC6=O)C7)CC5)CC45CCC5)c(OC)c3)cn(C)c(=O)c2C1` (stereo not shown) [Compound D332], where the note is “SYO-1 cells, 6 hours, Table 6C”, the pIC50 was > 8.00.

Turning to `CNC(=O)N1CCc2c(-c3cc(OC)c(CN4CCC(CCN5CCCN(c6ccc7c(c6)C(=O)N(C6CCC(=O)NC6=O)C7=O)CC5)CC4)c(OC)c3)cn(C)c(=O)c2C1` (stereo not shown) [Compound D198], the pIC50 under setting [1] is > 8.00.

Turning to `COc1cc(-c2cn(C)c(=O)c3c2CCN(C(=O)NCC(F)F)C3)cc(OC)c1CN1CCN(CCC2CCN(c3ccc4c(c3)CN(C3CCC(=O)NC3=O)C4=O)CC2)CC12CC2` (stereo not shown) [Compound D311], where the note is “SYO-1 cells, 6 hours, Table 6C”, the pIC50 is > 8.00.

Take `COc1cc(-c2cn(C)c(=O)c3c2CCN(C(=O)NCCCN2CCC4(C2)CN(c2ccc5c(c2)C(=O)N(C2CCC(=O)NC2=O)C5=O)C4)C3)cc(OC)c1CN(C)C` (stereo not shown) [Compound D207]: under setting [1], the pIC50 is 7.00 to 8.00.

`CNC(=O)N1CCc2c(-c3cc(OC)c(CN4CCN(CCC5CCN(c6ccc7c(c6)C(=O)N(C6CCC(=O)N(C)C6=O)C7)CC5)CC4)c(OC)c3)cn(C)c(=O)c2C1` (stereo not shown) [Compound D305]: under “SYO-1 cells, 6 hours, Table 6C”, the pIC50 was ≤ 6.00.

For the compound `COc1cc(-c2cn(C)c(=O)c3c2CCN(C(=O)NCCN2CCN(c4ccc5c(c4)C(=O)N(C4CCC(=O)NC4=O)C5=O)CC2)C3)cc(OC)c1CN(C)C` (stereo not shown) [Compound D150], the pIC50 under setting [1] was 7.00 to 8.00.

As for `CNC(=O)N1CCc2c(-c3cc(OC)c(CN4CCC(CCN5CCN(c6ccc7c(c6)C6(CC6)N(C6CCC(=O)NC6=O)C7=O)CC5)CC4)c(OC)c3)cn(C)c(=O)c2C1` (stereo not shown) [Compound D54], the pIC50 under setting [1] was ≤ 6.00.

As for `CNC(=O)N1CCc2c(-c3cc(OC)c(CN4CCC(CN(C)C5CC(Oc6ccc7c(c6)C(=O)N(C6CCC(=O)NC6=O)C7=O)C5)CC4)c(OC)c3)cn(C)c(=O)c2C1` (stereo not shown) [Compound D149], the negative-log IC50 (pIC50) under setting [1] was > 8.00.

Turning to `CNC(=O)N1CCc2c(-c3cc(OC)c(CN4CCC(CCN5CCN(c6ccc7c(c6OC)CN(C6CCC(=O)NC6=O)C7=O)CC5)CC4)c(OC)c3)cn(C)c(=O)c2C1` (stereo not shown) [Compound D49], the pIC50 under setting [1] is > 8.00.

Regarding `CNC(=O)N1CCc2c(-c3cc(OC)c(CN4CCOC(CCCN5CCN(c6ccc7c(c6)C(=O)N(C6CCC(=O)NC6=O)C7=O)CC5)C4)c(OC)c3)cn(C)c(=O)c2C1` (stereo not shown) [Compound D151], under setting [1], the negative-log IC50 (pIC50) is > 8.00.

Turning to `CNC(=O)N1CCc2c(-c3cc(OC)c(CN4CCC(CCN5C6CC5CN(c5ccc7c(c5)C(=O)N(C5CCC(=O)NC5=O)C7=O)C6)CC4)c(OC)c3)cn(C)c(=O)c2C1` (stereo not shown) [Compound D153], the pIC50 under setting [1] was 7.00 to 8.00.

In the case of `COc1cc(-c2cn(C)c(=O)c3c2CCN(C(=O)NCC2CC24CCN(CCOc2ccc5c(c2)C(=O)N(C2CCC(=O)NC2=O)C5=O)CC4)C3)cc(OC)c1CN(C)C` (stereo not shown) [Compound D269], under setting [1], the pIC50 is 7.00 to 8.00.

On to `CNC(=O)N1CCc2c(-c3cc(OC)c(CN4CCC(F)(CN5CCN(c6ccc7c(c6)C(=O)N(C6CCC(=O)NC6=O)C7=O)CC5)CC4)c(OC)c3)cn(C)c(=O)c2C1` (stereo not shown) [Compound D147], for which the pIC50 under setting [1] is > 8.00.

Consider `CNC(=O)N1CCc2c(-c3cc(OC)c(CN4CCC(CN5CCN(c6ccc7c(c6)C(=O)N(C6CCC(=O)NC6=O)C7=O)CC5)C4)c(OC)c3)cn(C)c(=O)c2C1` (stereo not shown) [Compound D169], for which the pIC50 under setting [1] is > 8.00.

The record behind these values is patent US12384776B2, “Compounds and uses thereof” (Foghorn Therapeutics Inc., priority 2019, dated 2025).
